Read-outs that look alike come from different tables or passages of the source. Where a SMILES comes first, the peptide text is derived from it. Where no end group is shown, it is not given here. [ ]: non-standard residue; d: D form. pGlu = O=C1CC[C@@H](C(=O)O)N1
Columns and labels:
[1] = test system: IMGE-5 cells; assay: IMGE-5 cell proliferation, MTT assay; assay type: cell-based, mice; conditions: MTT assay, peptides shown at 1 nM (FIGS. 7A, 8A)
Protocol: (§1) The IMGE-5 cell line was established from the gastric mucosa of mice transgenic for a temperature-sensitive mutant of the SV40 large T antigen (Hollande et al, 2001). IMGE-5 cells were generally grown at 33° C. in DMEM containing 1 unit/ml γ-interferon, 10% FBS, 100 U/ml penicillin, and 100 μg/ml streptomycin (permissive conditions). For all experiments, cells were transferred to 39° C. in the same medium without […] (non-permissive conditions), where they display differentiated characteristics such as expression of functional adherens and tight junctions. All experiments have been performed on cells between passages 20 and 35.
A colorimetric assay was used to measure cell proliferation. Briefly, IMGE-5 cells were seeded in a 96-well plate at a density of 10^4 cells/well in DMEM containing 10% FBS and antibiotics. The following day, cells were synchronized in Go by incubation for 24 h in the same medium lacking FBS. The medium was replaced the next day with fresh medium containing 1% FBS and antibiotics and the peptides under investigation, and incubation was continued for 72 h. 15 μl of 5 mg/ml 3-(4,5-dimethylthiazol-2-yl)-2-5-diphenyltetrazolium bromide (MTT, Sigma, St Louis Mo.) was added per well, and the plate was incubated at 37° C. for 4 h before the medium was discarded. 200 μl 40 mM HCl in isopropanol was added to lyse the cells, and the absorbance at 570 nm was read on a BioRad Model 550 Microplate reader (BioRad, Hercules, Calif.).

[2] = Solubility of peptides in NMR sample preparation; assay type: physicochemical; conditions: NMR sample conditions, pH 5.3
Protocol: For the subsequent experiments, samples were prepared for NMR spectroscopy by dissolving 2.5 mg of peptide in 0.6 ml of 10% DMSO/10% ^2H2O/80% H2O at 278 K. The pH was adjusted with small amounts of 1M NaO^2H or ^2HCl to pH 5.3. ^1H chemical shifts were referenced to 2,2-dimethyl-2-silapenthane-5-sulfonate at 0 ppm via the chemical shift of the H2O resonance or an impurity at 0.15 ppm. NMR spectra were recorded on Bruker DRX-600 and AMX-500 instruments, as described previously (Barnham et al, 1999).
The peptides LE5AYG, LE5A, E5AY and E5A (approximately 2 mM) were dissolved in H2O with 5 or 10% ^2H2O. […] Sequence-specific ^1H NMR resonance assignments were made from two-dimensional nuclear Overhauser enhancement spectroscopy (NOESY) and total correlation spectroscopy (TOCSY).

[3] = Quenching of peptide tryptophan fluorescence by ferric ions (stoichiometry, apparent Kd); assay type: binding; conditions: 10 mM sodium acetate pH 4.0, 100 mM NaCl, 0.005% Tween 20; mean ± S.E.; read-out: Kd (μM), apparent dissociation constant for ferric ions
Protocol: The tryptophan fluorescence of peptide solutions was measured in 3 mL quartz cuvettes thermostated at […], with a Spex Fluorolog-2 spectrofluorimeter (Spex Industries, Edison, N.J.), with the excitation and emission wavelengths set at 290 and 345 nm, respectively. The quenching of tryptophan fluorescence induced by the binding of metal ions was used to calculate the fraction of binding sites occupied, fa: fa=(yf−y)/(yf−yb) where y is the fluorescence signal at a given concentration of metal ions and yb and yf are the signals when the binding sites are fully occupied and unoccupied, respectively (Winzor et al, 1995). The stoichiometry, p, and apparent dissociation constant, Kd, were then obtained, using the program Sigmastat (Jandel Scientific, San Rafael, Calif.), from the intercept and slope of a linear regression of the data transformed as described by Winzor and Sawyer (1995) in terms of the equation Cs/fa=pCa+Kd/(1−fa) where Cs is the total concentration of metal ions, and Ca is the total concentration of glycine-extended gastrin17. For the bismuth binding studies, the data was fitted by non-linear regression with the program Sigmaplot (Jandel Scientific, San Rafael, Calif.) to the equations for models with one binding site or two binding sites with identical affinities: fa=x/(Kd1+x) or to the model with two binding sites with different affinities: fa=(Kd1·x+Kd2·x+2x^2)/2(Kd1·Kd2+Kd1·x+Kd2·x+x^2) where x is the concentration of free metal ions, Kd1 is the first site dissociation constant and Kd2 is the second site dissociation constant. For the one-site model the value of x at any given total concentration of metal ions was obtained by exact solution of the appropriate quadratic (Malby et al, 2001). For the two-site models the value of x was obtained by an iterative Newton-Raphson procedure (Linse et al, 1991). Absorption Spectroscopy
The tryptophan fluorescence of progastrin6-80, glycine-extended gastrin17 and related peptides was measured in the presence of increasing concentrations of ferric ions in 10 mM sodium acetate, pH 4.0, 100 mM NaCl, 0.005% Tween 20. […] Values from the indicated number of independent experiments were combined to obtain the mean values (±S.E.) presented above. No binding of ferric ions to Ggly1-4 or Ggly12-18 was observed.
The tryptophan fluorescence of amidated gastrin17 and related peptides was measured in the presence of increasing concentrations of ferric ions at pH 4.0 (8). Values of the stoichiometry and the apparent dissociation constant (Kd) were obtained from linear transformations of the data presented in FIG. 20A by least squares fitting. Values from the indicated number of independent experiments were combined to obtain the mean values (±S.E.) presented above.

[4] = test system: IMGE-5 cells; assay: Wound healing / cell migration assay; assay type: cell-based, mice; conditions: wound healing assay, fragments and mutants shown at 1 nM (FIGS. 7B, 8B)
Protocol: as §1
In order to assess the effects of different stimuli on cell migration, wound healing experiments were performed as detailed elsewhere (Hollande et al, 1997). In brief, IMGE-5 cells were grown in 12-well plates in DMEM at 33° C. until they reached 80% confluence, then shifted to 39° C. and starved of serum for 24 h. The confluent monolayer was wounded using a 20 μl-pipette tip, and cells were then washed 3 times with phosphate-buffered saline (PBS: 2.7 mM KCl, 1.5 MM KH2PO4, 142 mM NaCl, and 10 mM Na2HPO4, pH 6.95) and treated with or without different compounds in DMEM with antibiotics. Morphology and migration of cells were observed and photographed immediately, and after treatment for 17 and 24 h. Wound width was measured at six different positions on the 24 h photographs, and averages calculated.

[5] = biological target: T1, recombinant human progastrin6-80 (Homo sapiens, UniProt P01350); assay: Competition of metal ions with 59Fe3+ for binding to progastrin6-80; conditions: metal ions 100 μM, 59Fe3+ 10 μM, progastrin6-80 5.6 μM
T1 construct: made in house
T1 sequence (P01350 27-101): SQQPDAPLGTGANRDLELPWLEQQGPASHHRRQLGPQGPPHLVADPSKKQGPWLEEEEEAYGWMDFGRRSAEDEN
Protocol: In order to determine the specificity of the interaction between progastrin and metal ions, the binding of metal ions to recombinant human progastrin6-80 was determined by measuring their ability to compete with radioactive ^59Fe^3+ for binding to the protein by the following methods (Baldwin et al, 2001).
Progastrin6-80 (5.6 μM) in pH 2.8 buffer (10 mM sodium formate, pH 2.8, 100 mM NaCl, 0.005% Tween 20) was incubated for 30 min at 4° C. with ^59Fe^3+ ions (10 μM, 23.6 cpm/pmol) in the presence of several di- and trivalent metal ions (100 μM). Excess radioactivity was removed by overnight dialysis (SpectraPor dialysis tubing, molecular weight cut-off 3,500, Spectrum Labs., Rancho Dominguez, Calif.) at 4° C. against pH 4.0 buffer (10 mM sodium acetate, pH 4.0, 100 mM NaCl, 0.005% Tween 20), containing 1 µM EDTA. The radioactivity associated with progastrin6-80 was determined by counting aliquots of the internal and external solutions in a γ-counter (LKB-Wallac, Turku, Finland).

[6] = read-out: Apparent first dissociation constant of complex with ferric ions, cited from earlier work
[7] = test system: rectal mucosa; assay: Proliferation in the rectal mucosa of rectally defunctioned rats (metaphase-arrested cells); assay type: in vivo; conditions: infused intraperitoneally 2.5 nmol/kg/hr, 4 weeks
Protocol: DFO (400 mg/kg) was administered intraperitoneally thrice weekly, and bismuth ions were administered as colloidal bismuth subcitrate (135 mg/kg/12 hours) by oral gavage 5 days per week. After 4 weeks, the rats were injected with vincristine to arrest cycling cells in metaphase, and sacrificed 3 hrs later. Crypt heights in the rectal mucosa, and the number of metaphase arrested cells per crypt, were then determined microscopically.

[8] = pH 4.0; Ref. 8 given in table; read-out: Kd (μM), apparent dissociation constant for ferric ions; cited from earlier work

Row | Kd [3] | Compound | Stimulation of IMGE-5 cell proliferation [1] | Stimulation of IMGE-5 cell migration [4] | further results
1 | 1.2 ± 0.11 µM | CSCC[C@H](NC(=O)[C@H](Cc1c[nH]c2ccccc12)NC(=O)CNC(=O)[C@H](Cc1ccc(O)cc1)NC(=O)[C@H](C)NC(=O)[C@H](C)NC(=O)[C@H](C)NC(=O)[C@H](C)NC(=O)[C@H](C)NC(=O)[C@H](C)NC(=O)[C@H](CC(C)C)NC(=O)[C@H](Cc1c[nH]c2ccccc12)NC(=O)[C@@H]1CCCN1C(=O)CNC(=O)[C@@H]1CCC(=O)N1)C(=O)N[C@@H](CC(=O)O)C(=O)N[C@@H](Cc1ccccc1)C(=O)NCC(=O)O [GglyE6-10A] ([pGlu]GPWLAAAAAAYGWMDFG-OH) | inactive | inactive | Solubility [2]: Poor solubility
2 | 0.37 ± 0.07 µM | CSCC[C@H](NC(=O)[C@H](Cc1c[nH]c2ccccc12)NC(=O)CNC(=O)[C@H](Cc1ccc(O)cc1)NC(=O)[C@H](C)NC(=O)[C@H](C)NC(=O)[C@H](C)NC(=O)[C@H](C)NC(=O)[C@H](CCC(=O)O)NC(=O)[C@H](CCC(=O)O)NC(=O)[C@H](CC(C)C)NC(=O)[C@H](Cc1c[nH]c2ccccc12)NC(=O)[C@@H]1CCCN1C(=O)CNC(=O)[C@@H]1CCC(=O)N1)C(=O)N[C@@H](CC(=O)O)C(=O)N[C@@H](Cc1ccccc1)C(=O)NCC(=O)O [GglyE8-10A] ([pGlu]GPWLEEAAAAYGWMDFG-OH) | active in proliferation assays, although less so than Ggly |  | Solubility [2]: Poor solubility
3 |  | [Fe+3] [ferric ions] |  |  | Ability to compete with 59Fe3+ for binding to progastrin6-80 [5]: able to compete effectively
4 |  | [Fe+2] [ferrous ions] |  |  | Ability to compete with 59Fe3+ for binding to progastrin6-80 [5]: able to compete effectively
5 |  | O=C(O)CN(CC(=O)O)CC(=O)O [nitrilotriacetic acid] |  |  | Kd ([6]; pH 4.0): 830 nM; Kd ([6]; pH 7.6): 0.19 nM
6 | 0.2 ± 0.01 µM | GglyE7A: Ggly mutant, Glu7 replaced by Ala, SEQ ID NO:11 ([pGlu]GPWLEAEEEAYGWMDFG; ends and bridges not checked) | inactive | inactive | Stimulation of rectal mucosal proliferation [7]: able to stimulate mucosal proliferation as well as Ggly
7 |  | LE5AYGWMDFG (LEEEEEAYGWMDFG; listed as Homo sapiens) [Ggly5-18] | to the same extent as Ggly | to the same extent as Ggly | Stimulation of IMGE-5 cell proliferation ([1]; listed as LE5AYGWMDFG): fully active; Stimulation of IMGE-5 cell migration ([4]; listed as LE5AYGWMDFG): fully active; Kd [8]: 0.58 ± 0.19 µM

Reference: patent US20070031511A1, “Method of treatment” (priority 2003, published 2007)
